One experiment concerns the target RORγ (Homo sapiens, UniProt P51449). In words: RORγ Gal4 Reporter Gene Assay. The format is cell-based. The settings on record: for IC50: 293T cells. The method, boiled down: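 Cells at 5×10^5/well were transfected with RORγ fragments fused to the GAL4 DNA-binding domain (CMV promoter), a 5×GAL4-site firefly luciferase reporter and CMV-Renilla luciferase for normalization. About 4 h later serum-free MEM and compound were added (vehicle ≤0.1%). Cultures at 37 °C, 5% CO2; at least triplicates.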

Experiment [1] has as its target RORγ ligand binding domain (LBD) (Homo sapiens (Human), UniProt P51449). As to the kind of experiment: TR-FRET Activity Assay (ligand sensing assay, LANCE). As to conditions: for pIC50 (FRET): TR-FRET, interaction of RORγ-LBD with coactivator peptide.
Setting [2] is: firefly (FF) luciferase, read-out: pIC50 (FF) (converted).
The mark [3] stands for this setting: renilla normalised (RENnorm) luciferase, read-out: pIC50 (REN) (converted).

The record followed here is patent US10301272B2, “Carboxamide or sulfonamide substituted thiazoles and related derivatives as modulators for the orphan nuclear receptor ROR[γ]” (Phenex Pharmaceuticals AG, priority 2012, dated 2019).

Structures are written as SMILES. Like-named read-outs stand apart in the source and are kept apart here.

Sequence of RORγ ligand binding domain (LBD) (P51449 269-508): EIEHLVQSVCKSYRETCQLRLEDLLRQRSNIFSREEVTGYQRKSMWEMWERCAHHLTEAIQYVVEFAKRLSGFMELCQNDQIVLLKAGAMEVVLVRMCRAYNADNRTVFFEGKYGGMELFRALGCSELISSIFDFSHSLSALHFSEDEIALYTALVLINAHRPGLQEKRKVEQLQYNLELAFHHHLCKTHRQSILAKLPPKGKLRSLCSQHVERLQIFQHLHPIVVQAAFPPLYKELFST
Sequence of RORγ (P51449 whole entry, looked up, the tested form may be a part): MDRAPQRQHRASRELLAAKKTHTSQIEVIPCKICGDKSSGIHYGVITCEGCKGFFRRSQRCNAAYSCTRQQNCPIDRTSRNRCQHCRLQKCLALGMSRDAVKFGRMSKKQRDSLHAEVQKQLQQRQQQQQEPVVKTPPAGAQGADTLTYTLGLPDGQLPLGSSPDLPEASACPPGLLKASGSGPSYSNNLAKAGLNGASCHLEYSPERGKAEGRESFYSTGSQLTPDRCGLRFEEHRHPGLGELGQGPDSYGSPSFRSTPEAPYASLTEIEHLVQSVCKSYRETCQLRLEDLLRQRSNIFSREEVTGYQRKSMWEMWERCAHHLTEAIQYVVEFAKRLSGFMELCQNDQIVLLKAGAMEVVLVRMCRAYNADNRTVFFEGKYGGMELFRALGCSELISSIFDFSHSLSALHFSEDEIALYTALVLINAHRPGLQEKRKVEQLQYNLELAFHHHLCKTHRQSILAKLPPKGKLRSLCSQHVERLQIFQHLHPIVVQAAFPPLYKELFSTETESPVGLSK

Turning to `CC(C)(C)NS(=O)(=O)c1ccc(-c2sc(C(=O)NC3CCS(=O)(=O)CC3)nc2CC2CCCCC2)c(Cl)c1Cl` [6/43], at RORγ, the “pIC50 (FF)” value is listed as 7.0/8.7/8.7 and the “pIC50 (REN)” value is 7.0/8.7/8.7. In addition, the “pIC50 (FRET)” value in experiment [1] is 7.0/8.7/8.7.

As to `C[C@H](NC(=O)c1cc(-c2sc(C(=O)NCC(C)(C)O)nc2CC2CCCCC2)cc(C2(C)CC2)c1)C(F)(F)F` [8/6], at RORγ, the “pIC50 (FF)” value was 7.0/8.2/8.3 and the “pIC50 (REN)” value was 7.0/8.2/8.3. In experiment [1], the “pIC50 (FRET)” value is recorded as 7.0/8.2/8.3.

Turning to `CC(C)(C)NS(=O)(=O)c1ccc(-c2sc(C(=O)N[C@H]3C[C@H](C(=O)O)C3)nc2CC2CCCCC2)c(OC(F)F)c1Cl` [21/3], the IC50 is 0.01 µM on RORγ (setting [2]), 0.00501 µM on RORγ (setting [3]) and 0.398 µM in experiment [1].

In the case of `CCNS(=O)(=O)c1ccc(-c2sc(C(=O)NCC(C)(C)O)nc2CC2CCCCC2)c(Cl)c1Cl` [Example 18, 4-(Cyclohexylmethyl)-5-(2,3-dichloro-4-(N-ethylsulfamoyl)phenyl)-N-(2-hydroxy-2-methylpropyl)thiazole-2-carboxamide], at RORγ, the “pIC50 (FF)” value is 6.9/8.1/8.0 and the “pIC50 (REN)” value was 6.9/8.1/8.0. In experiment [1], the “pIC50 (FRET)” value is 6.9/8.1/8.0.

`CC(C)(C)NS(=O)(=O)c1ccc(-c2sc(C(=O)NCc3ncc(S(C)(=O)=O)s3)nc2CC2CCCCC2)c(Cl)c1Cl` [15/7]: on RORγ, the “pIC50 (FF)” value is on record as 7.2/8.3/8.4 and the “pIC50 (REN)” value was 7.2/8.3/8.4. Also, the “pIC50 (FRET)” value in experiment [1] is on record as 7.2/8.3/8.4.

`CC(C)(C)NS(=O)(=O)c1ccc(-c2sc(C(=O)N[C@H]3C[C@H](C(=O)O)C3)nc2CC2CCCCC2)c(Cl)c1C(F)(F)F` [7/12]: at RORγ, the “pIC50 (FF)” value was 6.2/8.0/8.2 and the “pIC50 (REN)” value is 6.2/8.0/8.2. For the same compound, the “pIC50 (FRET)” value in experiment [1] was 6.2/8.0/8.2.

Regarding `CNC(=O)C(C)(C)CCNC(=O)c1nc(CC2CCCCC2)c(-c2ccc(S(=O)(=O)NC(C)(C)C)c(C(F)(F)F)c2)s1` [Example 10/1], on RORγ, the “pIC50 (FF)” value is given as 6.2/7.0/7.1 and the “pIC50 (REN)” value is reported as 6.2/7.0/7.1. In addition, in experiment [1], the “pIC50 (FRET)” value was 6.2/7.0/7.1.

For `CC(C)(C)NS(=O)(=O)c1ccc(-c2sc(C(=O)NC3CCS(=O)(=O)CC3)nc2CC2CCCCC2)cc1C(C)(C)O` [6/26], on RORγ, the “pIC50 (FF)” value is recorded as 6.6/7.7/7.8 and the “pIC50 (REN)” value is 6.6/7.7/7.8. Also, in experiment [1], the “pIC50 (FRET)” value was 6.6/7.7/7.8.

In the case of `CC(C)(C)c1cc(-c2sc(C(=O)NC3CCOCC3)nc2CC2CCCCC2)cc(C2(C)CC2)c1` [Example 8, 5-(3-(tert-Butyl)-5-(1-methylcyclopropyl)phenyl)-4-(cyclohexylmethyl)-N-(tetrahydro-2H-pyran-4-yl)thiazole-2-carboxamide], at RORγ, the “pIC50 (FF)” value is recorded as 7.0/7.3/7.5 and the “pIC50 (REN)” value is on record as 7.0/7.3/7.5. Also, the “pIC50 (FRET)” value in experiment [1] is 7.0/7.3/7.5.

For `O=C(N[C@H]1C[C@H](C(=O)O)C1)c1nc(CC2CCCCC2)c(-c2ccc(OC(F)(F)F)c3ccccc23)s1` [7/21], the figures for the IC50 (on RORγ (setting [2]); at RORγ (setting [3]); in experiment [1]) were 0.126 µM, 0.126 µM and 2 µM, respectively.

For the compound `CC(C)(C)NS(=O)(=O)c1ccc(-c2sc(C(=O)NC3CCC(C(=O)O)C3)nc2CC2CCCCC2)c2ccccc12` (stereo not drawn) [6/51], on RORγ, the “pIC50 (FF)” value is 6.3/8.4/8.4 and the “pIC50 (REN)” value is 6.3/8.4/8.4. Moreover, in experiment [1], the “pIC50 (FRET)” value is reported as 6.3/8.4/8.4.

As for `CC(C)(C)NS(=O)(=O)c1ccc(-c2sc(C(=O)NCC3(O)CCOCC3)nc2CC2CCCCC2)cc1C(C)(C)O` [6/27], on RORγ, the “pIC50 (FF)” value is 6.7/7.7/7.7 and the “pIC50 (REN)” value was 6.7/7.7/7.7. Also, the “pIC50 (FRET)” value in experiment [1] is 6.7/7.7/7.7.

As for `O=C(c1nc(CC2CCCCC2)c(-c2ccc(S(=O)(=O)N3CCOCC3)c3ccccc23)s1)N1CC2(CCS(=O)(=O)CC2)C1` [14/4], on RORγ, the “pIC50 (FF)” value is listed as 6.2/6.4/6.3 and the “pIC50 (REN)” value was 6.2/6.4/6.3. Also, the “pIC50 (FRET)” value in experiment [1] is 6.2/6.4/6.3.
